Article PMC2832019, “In Vitro Metabolic and Mitogenic Signaling of Insulin Glargine and Its Metabolites” (PLoS ONE, 2010)

Assays:
primary rat adipocytes = experiment: Metabolic activity: insulin-stimulated lipid synthesis in primary rat adipocytes; type: cell-based, rat (Sprague-Dawley); conditions: for EC50: incorporation of [3-^3H]glucose into toluene-extractable lipids, 90 min at 37°C, pH 7.4, means ± SEM, five different adipocyte preparations, read-out: Metabolic potency EC50; for lipid synthesis EC50 higher relative to human insulin: fold higher EC50 relative to insulin; for metabolic activity, EC50 lower than M1: relative to M1
Experimental: The metabolic activity of the different insulins was compared using insulin-stimulated lipid synthesis in primary rat adipocytes. Primary rat adipocytes were prepared according to published procedures, [33]. Briefly, rats (Sprague-Dawley, male, 140–160 g, fed ad libitum) were provided from Charles-River (Sulzfeld, Germany) and killed by cervical dislocation in accordance with the German animal protection law. The animals were used for the preparation of primary adipocytes, exclusively, and were not subjected to any pretreatment, such as drug administration or starvation. Epididymal fat pads were rapidly removed, stripped of blood vessels and placed in PBS. Subsequently, the pads were washed with KRBB bubbled with 5% O2/95% CO2. Each pad was then cut into two or three pieces. Two pieces of each were incubated with 1.5 mL of digestion buffer (10 mg collagenase [Worthington Inc., CLS, type I, 190 units/mg] in 10 ml of KRBB containing 9 mg glucose) for 15–30 min at 37°C in a shaking water bath (240 cycles/min). Released adipocytes were separated from residual undigested tissue by passage through a nylon web (mesh size 150 µm) and washed by flotation in a plastic tube two or three times with KRBB and adjusted to the appropriate titer of 3.5×10^5 cells/mL. For distribution of the adipocytes, 200 µL of the suspension was removed under continuous gentle stirring with a plastic agitator.
Lipid synthesis was measured as the incorporation of [3-^3H]glucose into toluene-extractable lipids, at a final cell titer of […] in KRBB (1.2 mM KH2PO4, 1.2 mM MgSO4, 4.8 mM KCl, 25 mM NaHCO3, 120 mM NaCl, 2.4 mM CaCl2, containing 1% BSA [defatted, fraction V, Sigma, Deisenhofen, Germany] and 37 µM glucose and adjusted to pH 7.4) according to published procedures (Müller et al., 2008) with the following modifications: 680 µL of KRBB were filled into 10-mL scintillation vials and supplemented with 100 µL of D-[3-^3H]glucose (2 µCi/mL KRBB, 1 mM, Amersham-Buchler, Braunschweig, Germany) and 20 µL of insulin solution in KRBB. Lipid synthesis was started by the addition of 200 µL of adipocyte suspension in KRBB. After incubation for 90 min at 37°C under an atmosphere of 5% O2/95% CO2 and gentle shaking, 10 mL of toluene-based scintillation cocktail (Quickszint 501, Zinsser, Germany) was added. The samples were vigorously mixed and after phase separation (2 to 4 h) measured for radioactivity by liquid scintillation counting. Determination of the radioactivity contained in the toluene phase and corrected for non-specific spill-over of the radioactivity of unincorporated radiolabelled glucose contained in the water phase predominantly reflects the de novo lipid synthesis.
(§1) For each experiment, IC50 or EC50 values were obtained using the 4-parameter logistic model according to Ratkowsky and Reedy (1986). The adjustment was obtained by non-linear regression using the Levenberg-Marquardt algorithm in SAS v9.1.3 software via Biost@t-Speed V2.0-LTS internal application. If necessary, lower and upper asymptotes were set to 0 and 100, respectively.
Figure 3 Metabolic activity of insulin glargine and its metabolites in rat adipocytes. To compare the metabolic activity of glargine and its metabolites insulin-stimulated lipid synthesis in isolated primary rat adipocytes was analyzed by incorporation of [3-^3H]glucose into toluene-extractable lipids and subsequent measurement of radioactivity by liquid scintillation counting. The adipocytes were treated with increasing concentrations of insulin, analogs, metabolites or IGF-1 for 90 min at 37°C in the presence of [3-^3H]glucose. Each point represents the mean ± SEM of five different adipocyte preparations with activity measurements done in duplicate.

human IR-B = experiment: Competitive receptor binding (SPA), IR-B; conditions: for IC50: SPA, WGA PVT PEI beads, 2 µg membranes from CHO cells overexpressing IR-B, 100 pmol/L A14[^125I]-insulin, pH 7.8, 12 h, 23°C, means ± SEM, at least three times, read-out: IR-B affinity IC50; for IR-B binding, less active than human insulin: decrease relative to human insulin
Experimental: The binding of the different insulins to the human IR-A and IR-B was analyzed in a competitive binding assay using the scintillation proximity assay as previously described, [30]. […] Briefly, cells were grown to confluence and gently detached, transferred to a centrifugation tube followed by centrifugation for 10 minutes at 600×g at 4°C. The pellet was resuspended in ice-cold 2.25 STM buffer (2.25 mol/L sucrose, 5 mmol/L Tris-HCl pH 7.4, 5 mmol/L MgCl2, 1x Complete Protease Inhibitor) and disrupted using a hand-held Dounce homogenizer followed by sonication. This homogenate was transferred to a centrifugation tube, overlaid with 0.8 STM buffer (0.8 mol/L sucrose, 5 mmol/L Tris-HCl pH 7.4, 5 mmol/L MgCl2, 1x Complete Protease Inhibitor) and centrifuged for 90 minutes at 100 000×g at 4°C. The emerging pellicle at the interface was collected, transferred to a new tube and washed two times with PBS by centrifugation for 10 minutes at 1500×g. The final pellet was resuspended in a small volume of dilution buffer (50 mmol/L Tris-HCl pH 7.4, 5 mmol/L MgCl2, 1x Complete Protease Inhibitor) and homogenized with a Dounce homogenizer. These plasma membrane preparations were stored until usage at –80°C.
Binding experiments were conducted in 96-well microplates. Per well 2 µg of membranes were incubated with 0.25 mg wheat germ agglutinin polyvinyltoluene polyethylenimine SPA beads, 100 pmol/L A14[^125I]-insulin and various concentrations of unlabeled insulins in a binding buffer containing 0.05 mol/L Tris-HCl pH 7.8, 0.15 mol/L NaCl, 0.1% BSA, Complete Protease Inhibitor for 12 hours at room temperature (23°C). The radioactivity was measured at equilibrium in a microplate scintillation counter (Wallac Microbeta, Freiburg, Germany).
as §1
The binding of a constant concentration of [^125I]insulin to plasma membranes from CHO cells overexpressing either IR-A or IR-B was measured in presence of increasing concentrations of unlabeled competing ligand after incubation at room temperature for 12 h. All data has been corrected for non-specific binding and are expressed as percentage of [^125I]insulin in absence of competing ligand. To analyze the insulin-stimulated activation and subsequent autophosphorylation of the insulin receptor CHO cells overexpressing the human IR-A (C) or IR-B (D) were stimulated for 15 min at 37°C with increasing concentrations of peptides, then the cells were fixed with 3.7% PFA and the amount of phosphotyrosines was analyzed via In-Cell Western. The data represent mean values ± SEM of at least 3 individual experiments measured in quadruplicate.

Substance	EC50 (primary rat adipocytes)	IR-B affinity less potent than human insulin (human IR-B; IR-B, relative to human insulin)	IC50 (human IR-B)	IR-B binding, more potent relative to human insulin (human IR-B; relative to human insulin)	metabolic activity, EC50 lower than M1 (primary rat adipocytes)	lipid synthesis EC50 higher relative to human insulin (primary rat adipocytes)	IR-B binding, less active than human insulin (human IR-B)
IGF-1: IGF-1 obtained from R&D Systems and Cell Sciences	19 ± 0.93 nM	~300 fold	171 ± 50 nM			422 fold	
[Gly^A21,Arg^B31,Arg^B32]insulin [Glargine]	0.066 ± 0.005 nM		1.1 ± 0.12 nM			1.4 fold	40–50%
[Gly^A21]insulin [Glargine M1]	0.139 ± 0.009 nM		1.35 ± 0.2 nM			3.0 fold	40–50%

Second part, led by results:

EC50 (primary rat adipocytes)	IR-B affinity less potent than human insulin (human IR-B; IR-B, relative to human insulin)	IC50 (human IR-B)	IR-B binding, more potent relative to human insulin (human IR-B; relative to human insulin)	metabolic activity, EC50 lower than M1 (primary rat adipocytes)	Substance	lipid synthesis EC50 higher relative to human insulin (primary rat adipocytes)	IR-B binding, less active than human insulin (human IR-B)
0.045 ± 0.003 nM					Human insulin: human insulin produced by recombinant DNA techniques or enzymatic semisynthesis		
0.031 ± 0.005 nM		0.21 ± 0.03 nM	2.7 fold		[Asp^B10]insulin		
0.098 ± 0.012 nM		1.08 ± 0.06 nM		0.6 fold	[Gly^A21,Arg^B31]insulin [Glargine IM]		40–50%
0.087 ± 0.007 nM		1.09 ± 0.06 nM		0.6 fold	[Gly^A21,des-Thr^B30]insulin [Glargine M2]		40–50%
